Assay results: patent US4996230A, “Leukotriene antagonists” (Eli Lilly and Company, priority 1990, dated 1991)

Molecular target: T1, leukotriene B4 specific receptor on the membrane of human neutrophils (Homo sapiens, UniProt Q15722)
T1 construct: a specific receptor on the membrane of human neutrophils; endogenous in cells; host or cells: human peripheral blood neutrophils (buffy coats of two blood donors; intact cells, at least 90% neutrophils)
Assay: Inhibition of Binding of ^3H-LTB4 to Peripheral Human Neutrophils (radio-ligand binding assay)
Conditions: 0.1-0.2 nM ^3H-LTB4, 10 minutes at 4° C., read-out: LTB4 Binding Inhibition (percent inhibition); for inhibition at 10 µM: Drug Concentration 10^-5 M; for inhibition at 1 µM: Drug Concentration 10^-6 M; for inhibition at 0.1 µM: Drug Concentration 10^-7 M
Procedure: Inhibition of Binding of ^3 H-LTB4 to Peripheral Human Neutrophils
The effectiveness of compounds to inhibit the binding of leukotriene B4 to a specific receptor on the membrane of human neutrophils was measured by using an adaptation of a radio-ligand binding assay developed by Goldman and Goetzl, J. Immunol., 129, 1600 (1982). Other investigators have developed similar assays (see, e.g., Kreisle, et al., J. Exp. Med., 157, 628 (1983) and Lin, et al., Prostaglandins, 28, 837 (1984)).
Cells used in the assay were isolated by standard techniques of centrifugation on Ficoll-Hypaque, dextran 70 sedimentation and hypotonic lysis. The following procedure was used. Freshly-prepared buffy coat layers from two individuals were obtained from a local blood donor center. The cells were mixed and diluted to 484 ml with phosphate buffered saline containing heparin (10 units/ml) and heat-inactivated calf serum (5%). This was divided into 20 ml aliquots and the aliquots layered on top of Ficoll-Paque (12 ml). The material was then centrifuged at 500 g for 40 minutes at room temperature. The resulting upper layer of platelets and mononuclear cells was discarded. The lower layer containing erythrocytes and neutrophils was retained. Buffer was added (1 ml per 4 ml of lower layer) and the suspension mixed. For each milliliter of this mixture, 0.33 ml of 6% Macrodex was added. After stirring, the cells were allowed to sediment for 1 hour at 37° C. The resulting erythrocyte pellet was discarded and the neutrophil enriched supernatant fluid centrifuged at 500 g for 10 minutes at 4° C. Erythrocytes still present in this cell pellet were lysed by incubating the cells with 5-8 ml ice-cold distilled water for 30-45 seconds. Subsequently, the volume was made up to 50 ml by addition of ice-cold buffer and the cells resuspended. The suspension was then centrifuged at 300 g for 10 minutes at 4° C. The cells were finally resuspended at a cell density of 2×10^7 cells/ml in the assay buffer. This buffer consisted of Hanks' balanced salt solution and 0.1% ovalbumin (pH 7.3).
The amount of bound ^3 H-LTB4 was then measured and compared with the amount bound in the absence of test compound. The assay was carried out in microcentrifuge tubes by adding first 10 μl test compound dissolved in DMSO, followed by adding 20 μl ^3 H-LTB4 diluted in assay buffer, and finally adding 500 μl of the cell suspension. At the end of the 10 minutes incubation, 300 μl of a mixture of dibutyl and dinonyl phthalate (7:2) were added and the tubes centrifuged for 2 minutes in a microcentrifuge. The radioactivity bound to the cell pellet was measured by scintillation spectroscopy. Appropriate corrections for nonspecific bonding of ^3 H-LTB4 were made.

T1 sequence (Q15722 whole entry): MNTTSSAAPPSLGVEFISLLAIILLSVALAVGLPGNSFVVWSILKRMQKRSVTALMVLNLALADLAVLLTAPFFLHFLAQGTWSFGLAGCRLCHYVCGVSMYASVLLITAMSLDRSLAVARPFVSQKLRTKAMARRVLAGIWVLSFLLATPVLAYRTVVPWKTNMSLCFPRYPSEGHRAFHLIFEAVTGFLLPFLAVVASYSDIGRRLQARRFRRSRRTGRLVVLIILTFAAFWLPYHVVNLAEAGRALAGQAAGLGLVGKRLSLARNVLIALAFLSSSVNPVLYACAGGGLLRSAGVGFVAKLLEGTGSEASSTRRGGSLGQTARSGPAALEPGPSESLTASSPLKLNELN

Row | Compound | inhibition at 10 µM [%] | inhibition at 1 µM [%] | inhibition at 0.1 µM [%]
1 | CCCCCCCCCCOc1ccc2c(=O)c3cc(C(=O)O)ccc3oc2c1CCC(=O)O [Example 4, 7-Carboxy-3-(decyloxy)-9-oxo-9H-xanthene-4-propanoic acid] | 102 | 86 | 52
2 | CCCCCCCCCCOc1cc2oc3ccc(C(=O)O)cc3c(=O)c2cc1CCC(=O)O [Example 3, 7-Carboxy-3-decyloxy-9-oxo-9H-xanthene-2-propanoic acid] | – | 23 | -4
3 | COc1ccc(C=CCCCCOc2ccc3c(=O)c4cc(C(=O)O)ccc4oc3c2CCC(=O)O)cc1 [Example 6, 7-Carboxy-3-{[6-(4-methoxyphenyl)-5-hexenyl]oxy}-9-oxo-9H-xanthene-4-propanoic acid] | 102 | 99 | 91
4 | CCCCCCCCCCOc1cc2c(cc1CCC(=O)O)C(=O)c1cc(C(=O)O)ccc1-2 [Example 8, 7-Carboxy-3-decyloxy-9-oxo-9H-fluorene-2-propanoic acid] | 68 | 19 | -4
5 | COc1ccc(CCCCCCOc2ccc3c(=O)c4cc(C(=O)O)ccc4oc3c2CCC(=O)O)cc1 [Example 7, 7-Carboxy-3-{[6-(4-methoxyphenyl)hexyl]oxy}-9-oxo-9H-xanthene-4-propanoic acid] | 106 | 103 | 85
6 | CCCCCCCCCCOc1ccc2c(=O)c3cccc(C(=O)O)c3oc2c1CCC(=O)O [Example 2, 5-Carboxy-3-(decyloxy)-9-oxo-9H-xanthene-4-propanoic acid] | – | 27 | -7
7 | CCCCCCCCCCOc1cc2oc3c(C(=O)O)cccc3c(=O)c2cc1CCC(=O)O [Example 1, 5-Carboxy-3-(decyloxy)-9-oxo-9H-xanthene-2-propanoic acid] | – | 25 | 2
